Measured values reported in patent US12516064B2, “Tetrahydropyridopyrimidines and related analogs for inhibiting YAP/TAZ-TEAD” (THE KATHOLIEKE UNIVERSITEIT LEUVEN, priority 2022, dated 2026).

What was measured:
Type in all cases: cell-based
[1] = test system: YAP/TAZ-TEAD transcription; assay: Reporter gene assay for measuring the inhibition of YAP/TAZ-TEAD transcription; details: Homo sapiens, HEK-293T; Hek293T cells transiently transfected with TEAD-responsive element luciferase reporter; 24 hours incubation
Description: Hek293T cells are cultured in DMEM supplemented with 10% fetal bovine serum, Sodium pyruvate, Sodium bicarbonate, L-glutamine. The cells are harvested and transiently transfected with TEAD-responsive element luciferase reporter. Transfected cells are plated in 384-wells plate containing pre-diluted compounds. After 24 hours incubation at 37° C./5% CO2, assay plates were cooled down to RT and levelled to an equal volume per well, prior to the addition of 25 uL luciferase substrate SteadyLite (Perkin Elmer)/well. The plate was shaken for 10 min at 600 rpm, centrifuged for 1 min at 500 rpm and measured with an Envision reader (PerkinElmer). The amount of relative light units produced by the TEAD reporter is used to calculated percent of inhibition.
The percent of reporter inhibition was calculated in the presence of a positive control inhibitor (100% inhibition) versus a condition with the presence of the vehicle basal activity of the reporter (0% inhibition). The ability of a test compound to inhibit this activity was determined as: Percentage inhibition=[1−((RLU determined in the presence of vehicle−RLU determined for sample with test compound present) divided by (RLU determined in the presence of vehicle−RLU determined for sample with positive control inhibitor))]*100 The activities of example compounds tested are depicted in Table 8. The activity ranges A, B and C refer to IC50 values in the reporter gene assay as follows: “A”: EC50<1 μM; “B”: 1 μM≤EC50≤3.0 μM and “C”: EC50>3.0 μM, NT=not tested.

NCI-H226 = assay: Mesothelioma cell line proliferation assay (NCI-H226); details: Homo sapiens, 144 h; NCI-H226 cells; 6 days with compound; cell viability by ATPlite
Description: (§1) Mesothelioma cell lines, NCI-H226 and NCI-H2052 (all sourced from the ATCC cell culture collection) are plated in 96-well plates (Corning® 96 Well White Polystyrene Microplate clear flat bottom, white polystyrene (TC-Treated)), at 1500 cells/well in full medium (RPMI 1640 ATCC modification with L-glutamine, HEPES, Phenol Red, Sodium Pyruvate, High glucose, Low sodium bicarbonate and 10% fetal bovine serum). Cells are incubated overnight at 37° C. in an incubator with 5% CO2. Then compounds, dissolved in DMSO, are added in dose-response. Cells are incubated with compound dilutions for another 6 days at 37° C. in an incubator with 5% CO2. Cell viability is quantitated using the ATPlite kit (Perkin-Elmer) and the luminescence is read-out using an Envision instrument (Perkin-Elmer). The amount of relative light units produced using the ATPlite kit is used to calculated percent of inhibition.
(§2) The activities of some example compounds are depicted in Table 9. The activity ranges A, B and C refer to EC50 values in the mesothelioma cell line proliferation assay as described as follows: “A”: EC50<1 μM; “B”: 1 μM≤EC50≤10 μM and “C”: EC50>10 μM; NT: not tested.

NCI-H2052 = assay: Mesothelioma cell line proliferation assay (NCI-H2052); details: Homo sapiens, 144 h; NCI-H2052 cells; 6 days with compound; cell viability by ATPlite
Description: as §1, §2

| Compound | EC50 [1] | EC50 (NCI-H226) | EC50 (NCI-H2052) |
| --- | --- | --- | --- |
| C=CC(=O)N1CCc2c(nc(-c3cccc(F)c3)nc2-c2ccn(C)n2)C1 [Cpd. No. 52, 1-(2-(3-fluorophenyl)-4-(1-methyl-1H-pyrazol-3-yl)-5,8-dihydropyrido[3,4-d]pyrimidin-7(6H)-yl)prop-2-en-1-one] | < 1 µM | < 1 µM | 1 to 10 µM |
| C=C(F)C(=O)N1CCc2c(nc(-c3ccc(C(F)(F)F)cc3)nc2-c2ccn(C)n2)C1 [Cpd. No. 71, 2-fluoro-1-(4-(1-methyl-1H-pyrazol-3-yl)-2-(4-(trifluoromethyl)phenyl)-5,8-dihydropyrido[3,4-d]pyrimidin-7(6H)-yl)prop-2-en-1-one] | < 1 µM | < 1 µM | > 10 µM |
| C=CC(=O)N1CCc2c(nc(-c3ccc(F)cc3)nc2-c2ccn(C)n2)C1 [Cpd. No. 51, 1-(2-(4-fluorophenyl)-4-(1-methyl-1H-pyrazol-3-yl)-5,8-dihydropyrido[3,4-d]pyrimidin-7(6H)-yl)prop-2-en-1-one] | < 1 µM | < 1 µM | > 10 µM |
| C=CC(=O)N1CCc2c(nc(Cc3ccccc3)nc2-c2ccn(C)n2)C1 [Cpd. No. 32, 1-(2-benzyl-4-(1-methyl-1H-pyrazol-3-yl)-5,8-dihydropyrido[3,4-d]pyrimidin-7(6H)-yl)prop-2-en-1-one] | < 1 µM | < 1 µM | < 1 µM |
| C=CC(=O)N1CCc2c(nc(-c3ccc(C(F)(F)F)cc3)nc2-c2cnn(C)n2)C1 [Cpd. No. 92, 1-(4-(2-methyl-2H-1,2,3-triazol-4-yl)-2-(4-(trifluoromethyl)phenyl)-5,8-dihydropyrido[3,4-d]pyrimidin-7(6H)-yl)prop-2-en-1-one] | < 1 µM | < 1 µM | 1 to 10 µM |
| C=CC(=O)N1CCc2c(nc(-c3ccc(C(F)(F)F)cc3)nc2-c2ccn(C(F)F)n2)C1 [Cpd. No. 69, 1-(4-(1-(difluoromethyl)-1H-pyrazol-3-yl)-2-(4-(trifluoromethyl)phenyl)-5,8-dihydropyrido[3,4-d]pyrimidin-7(6H)-yl)prop-2-en-1-one] | < 1 µM | < 1 µM | 1 to 10 µM |
| C=CC(=O)N1Cc2nc(Cc3ccccc3)nc(-c3ccn(C)n3)c2C1 [Cpd. No. 20, 1-(2-benzyl-4-(1-methyl-1H-pyrazol-3-yl)-5,7-dihydro-6H-pyrrolo[3,4-d]pyrimidin-6-yl)prop-2-en-1-one] | < 1 µM | < 1 µM | 1 to 10 µM |
| Cn1ccc(-c2nc(-c3ccc(C(F)(F)F)cc3)nc3c2CCN(C(=O)C2CO2)C3)n1 (centres unmarked) [Cpd. No. 88, (4-(1-methyl-1H-pyrazol-3-yl)-2-(4-(trifluoromethyl)phenyl)-5,8-dihydropyrido[3,4-d]pyrimidin-7(6H)-yl)(oxiran-2-yl)methanone] | < 1 µM | < 1 µM | 1 to 10 µM |
| C=CC(=O)N1CCc2c(nc(Cc3cccc(F)c3)nc2-c2ccn(C)n2)C1 [Cpd. No. 43, 1-(2-(3-fluorobenzyl)-4-(1-methyl-1H-pyrazol-3-yl)-5,8-dihydropyrido[3,4-d]pyrimidin-7(6H)-yl)prop-2-en-1-one] | < 1 µM | < 1 µM | 1 to 10 µM |
| C=CC(=O)N1CCc2c(nc(Cc3ccccc3)nc2-c2ccn(Cc3cccnc3)n2)C1 [Cpd. No. 35, 1-(2-benzyl-4-(1-(pyridin-3-ylmethyl)-1H-pyrazol-3-yl)-5,8-dihydropyrido[3,4-d]pyrimidin-7(6H)-yl)prop-2-en-1-one] | < 1 µM | < 1 µM | 1 to 10 µM |
| C=CC(=O)N1CCc2c(nc(-c3ccccc3)nc2-c2ccn(C(F)F)n2)C1 [Cpd. No. 65, 1-(4-(1-(difluoromethyl)-1H-pyrazol-3-yl)-2-phenyl-5,8-dihydropyrido[3,4-d]pyrimidin-7(6H)-yl)prop-2-en-1-one] | < 1 µM | 1 to 10 µM | 1 to 10 µM |
| C=CC(=O)N1CCc2c(nc(-c3ccccc3)nc2-c2ccn(C)n2)C1 [Cpd. No. 39, 1-(4-(1-methyl-1H-pyrazol-3-yl)-2-phenyl-5,8-dihydropyrido[3,4-d]pyrimidin-7(6H)-yl)prop-2-en-1-one] | < 1 µM | < 1 µM | 1 to 10 µM |
| C=CC(=O)N1CCc2c(nc(-c3ccc(C(F)(F)F)cc3)nc2-c2ccn(C)n2)C1 [Cpd. No. 54, 1-(4-(1-methyl-1H-pyrazol-3-yl)-2-(4-(trifluoromethyl)phenyl)-5,8-dihydropyrido[3,4-d]pyrimidin-7(6H)-yl)prop-2-en-1-one] | < 1 µM | < 1 µM | 1 to 10 µM |
| C=CC(=O)N1CCc2c(nc(-c3cccc(C(F)(F)F)c3)nc2-c2ccn(C)n2)C1 [Cpd. No. 55, 1-(4-(1-methyl-1H-pyrazol-3-yl)-2-(3-(trifluoromethyl)phenyl)-5,8-dihydropyrido[3,4-d]pyrimidin-7(6H)-yl)prop-2-en-1-one] | < 1 µM | < 1 µM | 1 to 10 µM |
| CCC(=O)N1CCc2c(nc(Cc3ccccc3)nc2-c2ccn(Cc3cccnc3)n2)C1 [Cpd. No. 36, 1-(2-benzyl-4-(1-(pyridin-3-ylmethyl)-1H-pyrazol-3-yl)-5,8-dihydropyrido[3,4-d]pyrimidin-7(6H)-yl)propan-1-one] | 1 to 3 µM |  |  |
| CCC(=O)N1Cc2nc(-c3ccccc3)nc(-c3ccn(Cc4cccnc4)n3)c2C1 [Cpd. No. 24, 1-(2-phenyl-4-(1-(pyridin-3-ylmethyl)-1H-pyrazol-3-yl)-5,7-dihydro-6H-pyrrolo[3,4-d]pyrimidin-6-yl)propan-1-one] | 1 to 3 µM |  |  |
| Cn1ccc(-c2nc(-c3ccc(C(F)(F)F)cc3)nc3c2CCN(C(=O)C2=CCCC2)C3)n1 [Cpd. No. 84, cyclopent-1-en-1-yl(4-(1-methyl-1H-pyrazol-3-yl)-2-(4-(trifluoromethyl)phenyl)-5,8-dihydropyrido[3,4-d]pyrimidin-7(6H)-yl)methanone] | < 1 µM |  |  |
| C=CC(=O)N1CCc2c(nc(-c3ccccc3)nc2-c2ccccn2)C1 [Cpd. No. 67, 1-(2-phenyl-4-(pyridin-2-yl)-5,8-dihydropyrido[3,4-d]pyrimidin-7(6H)-yl)prop-2-en-1-one] | < 1 µM |  |  |
| C=CC(=O)N1CCc2c(nc(-c3ccccc3)nc2C(=O)NCc2cccnc2)C1 [Cpd. No. 58, 7-acryloyl-2-phenyl-N-(pyridin-3-ylmethyl)-5,6,7,8-tetrahydropyrido[3,4-d]pyrimidine-4-carboxamide] | 1 to 3 µM |  |  |
| CCC(=O)N1CCc2c(nc(Cc3ccccc3)nc2-c2ccn(C)n2)C1 [Cpd. No. 33, 1-(2-benzyl-4-(1-methyl-1H-pyrazol-3-yl)-5,8-dihydropyrido[3,4-d]pyrimidin-7(6H)-yl)propan-1-one] | > 3 µM |  |  |
| C=CC(=O)N1CCc2c(nc(-c3ccc(C(F)(F)F)cc3)nc2-c2nnnn2C)C1 [Cpd. No. 82, 1-(4-(1-methyl-1H-tetrazol-5-yl)-2-(4-(trifluoromethyl)phenyl)-5,8-dihydropyrido[3,4-d]pyrimidin-7(6H)-yl)prop-2-en-1-one] | < 1 µM |  |  |
| C=CC(=O)N1CCc2c(nc(-c3ccc(C(F)(F)F)cc3)nc2-c2nnn(C)n2)C1 [Cpd. No. 81, 1-(4-(2-methyl-2H-tetrazol-5-yl)-2-(4-(trifluoromethyl)phenyl)-5,8-dihydropyrido[3,4-d]pyrimidin-7(6H)-yl)prop-2-en-1-one] | < 1 µM |  |  |
| C=CC(=O)N1CCc2c(nc(-c3ccccc3)nc2-c2ccn(C(C)C)n2)C1 [Cpd. No. 60, 1-(4-(1-isopropyl-1H-pyrazol-3-yl)-2-phenyl-5,8-dihydropyrido[3,4-d]pyrimidin-7(6H)-yl)prop-2-en-1-one] | < 1 µM |  |  |
| CCC(=O)NC1CCc2c(nc(-c3ccccc3)nc2-c2ccn(Cc3cccnc3)n2)C1 (centres unmarked) [Cpd. No. 12, N-(2-phenyl-4-(1-(pyridin-3-ylmethyl)-1H-pyrazol-3-yl)-5,6,7,8-tetrahydroquinazolin-7-yl)propionamide] | > 3 µM |  |  |
| CCC(=O)NC1CCc2nc(-c3ccccc3)nc(-c3ccn(C)n3)c2C1 (centres unmarked) [Cpd. No. 3, N-(4-(1-methyl-1H-pyrazol-3-yl)-2-phenyl-5,6,7,8-tetrahydroquinazolin-6-yl)propionamide] | > 3 µM |  |  |
